Holding throughout (type): cell-based
One assay concerns the target T1, hPPARα (Homo sapiens, UniProt Q07869).
T1 construct: corresponding to the DEF domains (structural elements of the promoter of the PPARs: D=hinge, EF=ligand fixation domain and AF2 fixation site); expressed in transfected cells; host or cells: COS-7 (monkey kidney fibroblasts)
T1 sequence (Q07869 239-466 limits assumed): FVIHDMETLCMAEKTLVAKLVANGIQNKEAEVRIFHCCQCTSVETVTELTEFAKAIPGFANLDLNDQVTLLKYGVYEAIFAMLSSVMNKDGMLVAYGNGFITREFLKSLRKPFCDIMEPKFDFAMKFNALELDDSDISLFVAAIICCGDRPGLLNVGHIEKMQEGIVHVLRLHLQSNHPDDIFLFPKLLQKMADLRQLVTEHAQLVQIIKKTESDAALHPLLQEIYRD
As to the kind of experiment: Gal4-hPPARα chimera transactivation (luciferase) in COS-7 cells. Particulars: for EC50 / PPARα TOP % (maximum activation) / Emax: COS-7 cells, Gal4-hPPARα, 24 hours; for EC50: luciferase, read-out: PPARα EC50; for PPARα TOP % (maximum activation) / Emax: relative to maximum activation obtained with fenofibric acid; for Emax: read-out: PPARα TOP % (maximum activation). As for the experimental part:
(§1) Activation of PPARs is evaluated in vitro on a line of monkey kidney fibroblasts (COS-7) by measuring the transcriptional activity of chimeras consisting of the DNA binding domain of Gal4 transcription factor of yeast and of the ligand binding domain of the various PPARs of human origin (hPPAR).
(§2) The COS-7 cells are from ATCC and are cultivated in DMEM medium supplemented with 10% (vol/vol) of fetal calf serum, 1% of penicillin/streptomycin (Biochrom, AG), 1% of amino acids (Gibco) and 1% of sodium pyruvate (Gibco). The cells are incubated at 37° C. in a humid atmosphere containing 5% CO2.
(§3) The plasmids Gal4(RE)_TkpGL3, pGal4-hPPARα, pGal4-hPPARγ, pGal4-hPPARδ and pGal4-φ are described in the literature (Raspe E et al., 1999). The constructs pGal4-hPPARα, pGal4-hPPARγ and pGal4-hPPARδ were obtained by cloning, into the pGal4-φ vector, DNA fragments amplified by PCR corresponding to the DEF domains (structural elements of the promoter of the PPARs: D=hinge, EF=ligand fixation domain and AF2 fixation site) of the human nuclear receptors PPAα, PPARγ and PPARδ.
(§4) The adherent COS-7 cells are transfected with 40 μg of DNA per 225 cm^2 flask, with a pGal4-hPPAR/Gal4(RE)_TkpGL3 ratio of 1/10, in the presence of 10% of fetal calf serum. The cells are then detached and seeded in the absence of serum in 384-well plates (2×10^4 cells/well) then incubated for 4 hours at 37° C. The compounds are then diluted in a 96-well plate and then transferred to the 384-well plate. Activation with the test compounds is effected for a further 24 hours at 37° C. in the presence of 1% of synthetic serum Ultroser™ (Biosepra). These last 2 stages are automated by means of a Genesis Freedom 200™ station (Tecan). At the end of the experiment, the cells are lysed and the luciferase activity is determined using the Steady-Lite™ HTS (Perkin Elmer) according to the supplier's recommendations.
The test data are summarized in Table 8-1 below, which presents, for each compound, the values of maximum activation (TOP %) and the EC50 values measured for each isoform of PPAR. The values of maximum activation are expressed in percentages relative to the maximum activations obtained with reference agonists: fenofibric acid for PPARα, rosiglitazone for PPARγ and 2-methyl-4-((4-methyl-2-(4-trifluoromethylphenyl)-1,3-thiazol-5-yl)-methylsulfanyl)phenoxyacetic acid (also called GW501516) for PPARδ.

The target of another assay is T2, hPPARδ (Homo sapiens, UniProt Q03181).
T2 construct: corresponding to the DEF domains (structural elements of the promoter of the PPARs: D=hinge, EF=ligand fixation domain and AF2 fixation site); expressed in transfected cells; host or cells: COS-7 (monkey kidney fibroblasts)
T2 sequence (Q03181 211-439 limits assumed): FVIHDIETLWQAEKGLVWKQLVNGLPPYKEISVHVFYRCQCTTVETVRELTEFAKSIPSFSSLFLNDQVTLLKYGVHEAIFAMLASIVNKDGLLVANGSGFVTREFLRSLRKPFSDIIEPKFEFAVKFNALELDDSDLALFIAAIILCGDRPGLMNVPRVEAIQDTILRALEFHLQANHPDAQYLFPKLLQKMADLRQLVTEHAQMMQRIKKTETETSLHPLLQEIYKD
As to the kind of experiment: Gal4-hPPARδ chimera transactivation (luciferase) in COS-7 cells. Particulars: COS-7 cells, Gal4-hPPARδ, 24 hours; for EC50: luciferase, read-out: PPARδ EC50; for Emax: read-out: PPARδ TOP % (maximum activation). As for the experimental part: as §1, §2, §3, §4
(§5) The test data are summarized in Table 8-1 below, which presents, for each compound, the values of maximum activation (TOP %) and the EC50 values measured for each isoform of PPAR.

A further assay deals with T3, hPPARγ (Homo sapiens, UniProt P37231).
T3 construct: corresponding to the DEF domains (structural elements of the promoter of the PPARs: D=hinge, EF=ligand fixation domain and AF2 fixation site); expressed in transfected cells; host or cells: COS-7 (monkey kidney fibroblasts)
T3 sequence (P37231 238-503 limits assumed): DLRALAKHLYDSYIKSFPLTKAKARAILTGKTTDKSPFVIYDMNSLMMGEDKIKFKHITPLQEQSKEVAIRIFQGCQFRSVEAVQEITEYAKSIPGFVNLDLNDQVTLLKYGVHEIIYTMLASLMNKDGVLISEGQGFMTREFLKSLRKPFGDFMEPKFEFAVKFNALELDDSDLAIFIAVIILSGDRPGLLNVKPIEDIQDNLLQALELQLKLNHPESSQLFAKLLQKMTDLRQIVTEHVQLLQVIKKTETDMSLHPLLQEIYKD
As to the kind of experiment: Gal4-hPPARγ chimera transactivation (luciferase) in COS-7 cells. Particulars: 24 hours; for EC50: luciferase, read-out: PPARγ EC50; for Emax: read-out: PPARγ TOP % (maximum activation). As for the experimental part:
as §1, §2, §3, §4, §5

The mark [1] stands for this setting: relative to maximum activation obtained with GW501516.
[2] abbreviates: relative to maximum activation obtained with rosiglitazone.

For the compound “2-(4-(((2-methoxy-6-furylpyridin-3-yl)methyl)amino)phenylthio)ethanoic acid [Cpd 30]”, at hPPARα, the EC50 came out at 12.1 µM and the “PPARα TOP % (maximum activation)” value is listed as 38.70%.
In the case of “3-(4-(((2-methoxy-6-furylpyridin-3-yl)methyl)amino)phenyl)propanoic acid [Cpd 31]”, the EC50 on hPPARδ was 16.3 µM; on hPPARγ, 3.36 µM; on hPPARα, 2.49 µM. Also, the “PPARδ TOP % (maximum activation)” value at hPPARδ (setting [1]) worked out at 86.72%. Further, at hPPARγ (setting [2]), the “PPARγ TOP % (maximum activation)” value worked out at 62.35%. Further, at hPPARα, the “PPARα TOP % (maximum activation)” value was 49.52%.
For the compound `COc1nc(-c2ccccc2)ccc1COc1ccc(OC(C)C(=O)O)cc1` (stereo not drawn) [Cpd 3, 2-(4-((2-methoxy-6-phenylpyridin-3-yl)methoxy)phenoxy)propanoic acid], the EC50 is 1.2 µM on hPPARδ, 3.24 µM on hPPARγ and 0.432 µM on hPPARα. Moreover, the Emax at hPPARδ (setting [1]) worked out at 114%; at hPPARγ (setting [2]), 43.6%; on hPPARα, 68.7%.
As for `COc1nc(-c2ccccc2)ccc1CNc1ccc(OC(C)C(=O)O)cc1` (stereo not drawn) [Cpd 5, 2-(4-(((2-methoxy-6-phenylpyridin-3yl)methyl)amino)phenoxy)propanoic acid], the EC50 at hPPARδ was found to be 6.17 µM; at hPPARγ it was 3.72 µM; at hPPARα, 0.389 µM. Further, the Emax on hPPARδ (setting [1]) amounted to 71%; on hPPARγ (setting [2]), 57.3%; at hPPARα, 67.5%.
In the case of `CC(C)(C)Oc1nc(-c2ccccc2)ccc1COc1ccc(OC(C)(C)C(=O)O)cc1` [Cpd 6, 2-(4-((2-tert-butyloxy-6-phenylpyridin-3-yl)methoxy)phenoxy)-2-methyl-propanoic acid], the EC50 turned out to be 0.489 µM on hPPARδ, 11.8 µM at hPPARγ and 5.43 µM at hPPARα. Moreover, the Emax at hPPARδ (setting [1]) is 70.7%; on hPPARγ (setting [2]), 17.3%; at hPPARα it was 30.3%.
For the compound `CC(C)(C)Oc1nc(-c2ccccc2)ccc1CNc1ccc(OCC(=O)O)cc1` [Cpd 8], the EC50 on hPPARδ came out at 2.11 µM; on hPPARγ, 12.2 µM; on hPPARα it was 7.92 µM. In addition, the Emax at hPPARδ (setting [1]) was 72.4%; on hPPARγ (setting [2]) it was 13.4%; at hPPARα it was 21.9%.
Regarding `CC(C)(C)Oc1nc(-c2ccccc2)ccc1CNc1ccc(OC(C)(C)C(=O)O)cc1` [Cpd 9, 2-(4-(((2-tert-butyloxy-6-phenylpyridin-3-yl)methyl)amino)phenoxy)-2-methyl-propanoic acid], the EC50 is 0.464 µM on hPPARδ, 6.09 µM on hPPARγ and 4.5 µM on hPPARα. Moreover, the Emax at hPPARδ (setting [1]) is 74.2%; at hPPARγ (setting [2]), 23.9%; on hPPARα, 33.7%.
For `CC(Oc1ccc(NCc2ccc(-c3ccccc3)nc2OC(C)(C)C)cc1)C(=O)O` (stereo not drawn) [Cpd 10, 2-(4-(((2-tert-butyloxy-6-phenylpyridin-3-yl)methyl)amino)phenoxy)propanoic acid], the EC50 at hPPARδ worked out at 0.754 µM; at hPPARγ, 10.5 µM; on hPPARα it was 6.06 µM. In addition, the results for the Emax at hPPARδ (setting [1]), on hPPARγ (setting [2]) and on hPPARα were 96.7%, 25.6% and 53.2%, respectively.
`COc1nc(-c2ccccc2)ccc1CNc1ccc(SC(C)(C)C(=O)O)cc1` [Cpd 11, 2-(4-(((2-methoxy-6-phenylpyridin-3-yl)methyl)amino)phenylthio)-2-methyl-propanoic acid]: the values for the EC50 on hPPARδ, at hPPARγ and on hPPARα were 3 µM, 2.45 µM and 0.022 µM, respectively. Besides, the Emax was determined as 85.7% at hPPARδ (setting [1]), 54.5% at hPPARγ (setting [2]) and 86.2% at hPPARα. For the same compound, the “selectivity among hPPAR isoforms (hPPARα)” value on hPPARα (Gal4-hPPAR chimeras, COS-7) is listed as “high selectivity for hPPARα”.
Take `COc1nc(-c2ccccc2)ccc1CNc1ccc(OC(C)(C)C(=O)O)cc1` [Cpd 12, 2-(4-(((2-methoxy-6-phenylpyridin-3-yl)methyl)amino)phenoxy)-2-methyl-propanoic acid]: the EC50 on hPPARδ worked out at 2.36 µM; at hPPARγ, 2.64 µM; on hPPARα, 0.195 µM. Further, the Emax stood at 84.2% at hPPARδ (setting [1]), 44.9% at hPPARγ (setting [2]) and 78.1% at hPPARα.
For `COc1nc(-c2ccccc2)ccc1CNc1cccc(OC(C)(C)C(=O)O)c1` [Cpd 13, 2-(3-(((2-methoxy-6-phenylpyridin-3-yl)methyl)amino)phenoxy)-2-methyl-propanoic acid], the EC50 came to 3.22 µM at hPPARδ, 6.93 µM at hPPARγ and 1.43 µM at hPPARα. For the same compound, the Emax at hPPARδ (setting [1]) is 96.1%; on hPPARγ (setting [2]) it was 24.1%; at hPPARα, 61.9%.
As for `COc1nc(-c2ccccc2)ccc1CNc1cccc(OCC(=O)O)c1` [Cpd 14, 2-(3-(((2-methoxy-6-phenylpyridin-3-yl)methyl)amino)phenoxy)ethanoic acid], the EC50 at hPPARδ is 16.2 µM; on hPPARγ, 24.3 µM; at hPPARα, 33.3 µM. Besides, the Emax at hPPARδ (setting [1]) amounted to 103%; on hPPARγ (setting [2]), 53.7%; on hPPARα, 58.4%.
Regarding `CCCCCCOc1nc(-c2ccccc2)ccc1COc1ccc(OCC(=O)O)cc1` [Cpd 15, 2-(4-((2-hexyloxy-6-phenylpyridin-3-yl)methoxy)phenoxy)ethanoic acid], the EC50 came to 1.52 µM at hPPARδ, 12.3 µM at hPPARγ and 3.24 µM on hPPARα. Moreover, the Emax on hPPARδ (setting [1]) worked out at 96.5%; at hPPARγ (setting [2]) it was 46.6%; at hPPARα, 78.2%.
As for `COc1nc(-c2ccccc2)ccc1CNc1ccc(SCC(=O)O)cc1` [Cpd 16, 2-(4-(((2-methoxy-6-phenylpyridin-3-yl)methyl)amino)phenylthio)ethanoic acid], the EC50 came out at 3.37 µM on hPPARδ, 5.18 µM at hPPARγ and 0.51 µM on hPPARα. Further, the Emax on hPPARδ (setting [1]) is 85.2%; at hPPARγ (setting [2]) it was 70%; at hPPARα it was 78%.
Consider `CCCCCCOc1nc(-c2ccccc2)ccc1COc1ccc(OC(C)(C)C(=O)O)cc1` [Cpd 17, 2-(4-((2-hexyloxy-6-phenylpyridin-3-yl)methoxy)phenoxy)-2-methyl-propanoic acid], for which the EC50 turned out to be 0.992 µM on hPPARδ, 0.583 µM on hPPARγ and 0.009 µM at hPPARα. The Emax at hPPARδ (setting [1]) is 99.6%; at hPPARγ (setting [2]) it was 75.6%; on hPPARα, 66.8%.

These data come from patent publication US8461183B2, “PPAR agonist compounds, preparation and uses” (Genfit, priority 2008, dated 2013).
